Reference: patent US11542492B2 (Celgene CAR LLC, priority 2009, dated 2023)
pIC50: −log10 of the molar value.

What was measured:
[1] = biological target: T1, HCV NS3/4A 1b protease enzyme (wild type) (Hepatitis C virus genotype 1b, UniProt P26663); assay: HCV protease FRET assay (IC50_APP), wild type NS3/4A 1b; format: biochemical
T1 construct: 10× stocks of NS3/4A protease enzyme from Bioenza (Mountain View, Calif.); purchased Bioenza
In short: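 Wild-type NS3/4A 1b protease with serially diluted compounds (from 50% DMSO stocks); reaction started at once with FRET substrate and followed 60-90 min at ex485/em520. Initial velocities (0 to 15+ min) normalised to no-inhibitor and no-enzyme controls; apparent IC50 from variable-slope log[inhibitor]-response fit.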

[2] = tested on: NS3/4A self-cleavage activity in Huh-7 cells; assay: Prolonged duration of action (washout), NS3 self-cleavage in transfected Huh-7 cells; format: cell-based; conditions: FIG. 11
Experimental: Parental Huh-7 cells were plated at a density of 1.75×10^6 cells per 100 mm dish in media with 10% FBS. The following day, cells were transfected in OptiMEM using 28 ug of plasmid and 112 ul of Lipfectamine 2000 (Invitrogen), according to manufacturer's instructions. After 4 hours incubation with the transfection complex, the media was changed to Replicon Assay Medium (RPMI supplemented with 5% FBS, 1× non-essential amino acids and pen/strep). The next morning, the cells were trypsinized, counted and replated in Replicon Media at a density of 20,000 cells/well of a 12 well plate (4 wells per genotype). Cells were allowed to adhere to the plate, then the media was removed and replaced with 1 ml media containing XVI-26, (3 wells per compound) and 0.02% DMSO and returned to the incubator overnight. Sixteen hours later 1 treated well from each genotype (0 hr sample) and 1 untreated well were washed with PBS, then lysed and scraped into 30 ul of Cell Extraction Buffer (Biosource, Camarillo, Calif.) plus Complete Protease Inhibitor (Roche, Indianapolis, Ind.). The remaining wells were rinsed 2× with PBS then fed with Replicon Media and returned to the incubator. […] Lysates were resolved using standard immunoblotting methods and NS3 self-cleavage activity was assessed and quantified relative to untreated samples.

[3] = biological target: T2, HCV C159S/K136A double mutant (Hepatitis C virus genotype 1b, UniProt P26663, C1185S/K1162A); assay: MALDI MS of intact HCV protease C159S/K136A double mutant; format: binding; conditions: 1 hr, 10× fold excess
T2 construct: The single-chain proteolytic domain (NS4A21-32-GSGS-NS33-631) was cloned into pET-14b; His tag (own knowledge of vector pET-14b); made in house; host or cells: Escherichia coli BL21
Experimental: (§1) Intact HCV (protease) 1bWT, C159S, and C159S/K136A were incubated for 1 hr at a 10× fold excess of XVI-26 to protein. 3 μl aliquots of the samples were diluted with 10 μl of 0.1% TFA prior to micro C4 ZipTipping directly onto the MALDI target using Sinapinic acid as the desorption matrix (10 mg/mL in 0.1% TFA:Acetonitrile 50:50).

[4] = biological target: T3, HCV protease C159S mutant (Hepatitis C virus genotype 1b, UniProt P26663, C1185S); assay: MALDI MS of intact HCV protease C159S incubated with compound; format: binding; conditions: 1 hr, 10× fold excess
T3 construct: The single-chain proteolytic domain (NS4A21-32-GSGS-NS33-631) was cloned into pET-14b; His tag (own knowledge of vector pET-14b); made in house; host or cells: Escherichia coli BL21
Experimental: as §1

HCV NS3 protease WT 1b = biological target: T4, HCV NS3 protease WT 1b (Hepatitis C virus genotype 1b, UniProt P26663); assay: MALDI MS of intact HCV protease 1b WT incubated with compound; format: binding
T4 construct: The single-chain proteolytic domain (NS4A21-32-GSGS-NS33-631) was cloned into pET-14b; His tag (own knowledge of vector pET-14b); made in house; host or cells: Escherichia coli BL21
Experimental: as §1, with “1bWT was” for “1bWT, C159S, and C159S/K136A were”, “ul” for “μl”, “50:50). […] Due to likely protein misfolding during protein purification, a small portion of the misfolded protein was not modified.” for “50:50).”
In order to determine whether the modification of the protein occurred at lysine, the pH from the above experiment was increased from 7.4 to 10.0. Because the compound lysine adduct would be an amide any increase in pH would have minimal effect on the modified protein. If however, the modification occurred at cysteine the resultant thioester bond would be unstable and the compound would hydrolyze off the protein.
as §1
as §1, with “WT1b was” for “1bWT, C159S, and C159S/K136A were”, “XVI-1 (mw=782.87)” for “XVI-26”, “50:50). […] Due to some protein misfolding during the purification of the protein, the unfolded portion of the protein can not react with XVI-1.” for “50:50).”

HCT116 = assay: HCT116-WB assay; format: cell-based; conditions: Homo sapiens, HCT-116; read-out: HCT116-WB Inhibition Designation
PI3Kβ = PI3Kβ (Homo sapiens, UniProt P42338); assay: MALDI MS of intact PI3Kβ incubated with compound; format: binding; conditions: 3 hr, 10× fold excess of compound to protein
Chain of PI3Kβ (P42338 whole entry): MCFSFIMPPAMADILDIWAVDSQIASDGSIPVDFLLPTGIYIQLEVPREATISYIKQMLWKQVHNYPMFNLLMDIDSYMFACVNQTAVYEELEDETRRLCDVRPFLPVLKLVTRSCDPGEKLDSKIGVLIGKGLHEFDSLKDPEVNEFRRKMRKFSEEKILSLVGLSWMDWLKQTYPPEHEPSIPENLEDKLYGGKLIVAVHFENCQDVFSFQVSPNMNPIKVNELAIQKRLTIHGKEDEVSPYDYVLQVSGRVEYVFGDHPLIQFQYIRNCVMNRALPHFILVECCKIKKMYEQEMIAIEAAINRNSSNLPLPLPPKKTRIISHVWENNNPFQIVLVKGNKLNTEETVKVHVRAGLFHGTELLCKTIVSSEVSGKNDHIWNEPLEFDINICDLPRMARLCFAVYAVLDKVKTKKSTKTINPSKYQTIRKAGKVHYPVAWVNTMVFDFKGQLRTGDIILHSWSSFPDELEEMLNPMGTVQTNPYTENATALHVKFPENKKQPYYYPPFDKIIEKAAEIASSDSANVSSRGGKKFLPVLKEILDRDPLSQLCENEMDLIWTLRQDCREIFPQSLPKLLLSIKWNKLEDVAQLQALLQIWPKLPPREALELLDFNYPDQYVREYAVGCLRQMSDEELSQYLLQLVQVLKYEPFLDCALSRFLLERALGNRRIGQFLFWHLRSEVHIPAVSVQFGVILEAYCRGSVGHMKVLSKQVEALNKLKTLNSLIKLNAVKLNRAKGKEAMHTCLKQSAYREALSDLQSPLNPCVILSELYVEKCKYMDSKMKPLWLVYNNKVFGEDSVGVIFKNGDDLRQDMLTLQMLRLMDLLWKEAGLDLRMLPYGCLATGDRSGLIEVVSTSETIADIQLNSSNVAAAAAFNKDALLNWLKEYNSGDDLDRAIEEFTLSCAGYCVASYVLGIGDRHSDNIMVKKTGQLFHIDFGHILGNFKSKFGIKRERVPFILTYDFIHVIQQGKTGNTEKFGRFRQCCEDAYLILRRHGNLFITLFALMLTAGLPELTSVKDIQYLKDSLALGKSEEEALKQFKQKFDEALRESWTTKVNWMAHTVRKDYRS
Chain of PI3Kβ (P27986 whole entry partner): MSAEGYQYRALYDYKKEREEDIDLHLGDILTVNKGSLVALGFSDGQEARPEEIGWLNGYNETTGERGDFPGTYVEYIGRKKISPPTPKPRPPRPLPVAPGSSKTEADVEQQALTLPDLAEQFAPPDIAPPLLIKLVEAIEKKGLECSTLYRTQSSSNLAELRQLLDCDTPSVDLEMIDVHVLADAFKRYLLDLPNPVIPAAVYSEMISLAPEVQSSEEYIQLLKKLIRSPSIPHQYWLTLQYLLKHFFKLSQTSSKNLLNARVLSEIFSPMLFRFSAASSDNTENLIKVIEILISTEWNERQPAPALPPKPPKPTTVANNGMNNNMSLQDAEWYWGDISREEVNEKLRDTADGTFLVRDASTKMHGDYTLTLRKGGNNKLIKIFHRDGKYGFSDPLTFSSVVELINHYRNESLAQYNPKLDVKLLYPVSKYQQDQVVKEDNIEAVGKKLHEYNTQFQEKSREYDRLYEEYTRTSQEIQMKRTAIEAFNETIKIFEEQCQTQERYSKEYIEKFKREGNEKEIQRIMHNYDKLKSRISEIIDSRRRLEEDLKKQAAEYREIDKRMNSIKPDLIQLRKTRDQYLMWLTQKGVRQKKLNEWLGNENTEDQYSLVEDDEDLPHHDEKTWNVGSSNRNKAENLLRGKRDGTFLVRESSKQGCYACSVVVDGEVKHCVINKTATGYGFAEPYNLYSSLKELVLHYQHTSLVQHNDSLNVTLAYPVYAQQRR
Experimental: Intact PI3Kβ was incubated for 3 hr at a 10× fold access of compound to protein. 5 μL aliquots of the samples were diluted with 15 μL of 0.1% TFA prior to micro C4 ZipTipping directly onto the MALDI target using Sinapinic acid as the desorption matrix (10 mg/mL in 0.1% TFA:Acetonitrile 50:50). Spots were then analyzed via MALDI-MS. XXII-10 modified PI3Kβ 100% by 3h. XXII-8, XXII-6, XXIII-4, and XXIII-3 each provided between about 35% to about 55% modification.

Compound | pIC50 [1] | duration of action after washout [2] | modification of HCV C159S/K136A [3] | positive mass shift of HCV C159S [4] [Da] | stability of adduct at raised pH (HCV NS3 protease WT 1b; 1 hour at pH 7.4 followed by 2 hours at pH 10) | MS_HCVNS3_INTACT_NS3 WT 1b 1 HR (HCV NS3 protease WT 1b; WT 1b, 1 HR) | pIC50 (HCT116) | modification of PI3Kβ (PI3Kβ) [%]
C=C[C@@H]1C[C@]1(NC(=O)[C@@H]1CC(Oc2cc(-c3ccccc3)nc3cc(OC)ccc23)CN1C(=O)[C@H](CCC(=O)N1CCC1=O)NC(=O)OC(C)(C)C)C(=O)NS(=O)(=O)C1CC1 (some centres unmarked) [XVI-26] | > 9.00 | prolonged duration of action | no modification | 770 | did not come off of the protein | H (>50% and ≤70% modification) |  | 
C=CS(=O)(=O)N(C)Cc1cc2nc(-c3cccc(O)c3)nc(N3CCOCC3)c2s1 [XXII-10] |  |  |  |  |  |  | 6.00 to 7.00 | 100
